From US6894059B1, “Compounds and methods for treatment of asthma, allergy and inflammatory disorders” (UCB S.A., priority 1999, dated 2005)

Legend:
[1] = molecular target: T1, human 5-lipoxygenase enzyme (Homo sapiens, UniProt P09917); experiment: Inhibition of LTB4 production in human whole blood stimulated with calcium ionophore A23187; format: cell-based; details: A23187 50 μM, LTB4 by EIA, read-out: HWB IC50
T1 construct: Blood is drawn from normal human volunteers into tubes containing heparin; endogenous in cells; host or cells: human whole blood, heparinized, stimulated with A23187
T1 sequence (P09917 1-674): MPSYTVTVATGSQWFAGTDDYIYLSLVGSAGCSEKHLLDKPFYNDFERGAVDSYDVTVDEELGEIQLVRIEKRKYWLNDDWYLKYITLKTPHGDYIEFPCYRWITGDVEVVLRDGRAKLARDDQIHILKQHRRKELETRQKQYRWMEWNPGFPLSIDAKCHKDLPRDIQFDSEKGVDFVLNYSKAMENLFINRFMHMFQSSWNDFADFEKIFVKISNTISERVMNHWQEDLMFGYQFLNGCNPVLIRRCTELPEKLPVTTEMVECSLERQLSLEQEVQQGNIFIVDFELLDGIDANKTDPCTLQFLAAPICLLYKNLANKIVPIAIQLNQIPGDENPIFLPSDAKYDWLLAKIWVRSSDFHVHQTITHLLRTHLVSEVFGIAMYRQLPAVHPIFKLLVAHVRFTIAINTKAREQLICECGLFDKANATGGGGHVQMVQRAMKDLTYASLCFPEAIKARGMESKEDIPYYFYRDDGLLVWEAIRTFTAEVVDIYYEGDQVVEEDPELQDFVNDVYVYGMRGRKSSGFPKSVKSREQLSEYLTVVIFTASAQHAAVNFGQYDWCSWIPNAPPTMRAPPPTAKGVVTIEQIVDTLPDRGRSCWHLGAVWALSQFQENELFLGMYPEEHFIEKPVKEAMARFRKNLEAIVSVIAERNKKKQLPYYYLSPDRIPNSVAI
Protocol: This assay examines the ability of a compound to inhibit leukotriene B4 Production from human blood stimulated with calcium ionophore. As this production of leukotriene B4 is mediated via the activation of the 5-lipoxygenase enzyme, this assay is predictive of a compound's ability to inhibit the human 5-lipoxygenase enzyme.
The procedure for the assay is as follows. Blood is drawn from normal human volunteers into tubes containing heparin. 1 ml of the heparinized blood is pipetted into a 1.5 ml polypropylene tube. To this sample is added either different concentrations of the test compound (5 μl) dissolved in DMSO or 5 μl of DMSO as a vehicle control. These samples are incubated in a water bath, at […] for 15 min. […] From this a percent inhibition of LTB4 production by each concentration of test compound is calculated and the IC50 for inhibition of LTB4 production for each test compound is determined.

human cloned H1 receptor = molecular target: T2, human cloned H1 receptor (Homo sapiens, UniProt P35367); experiment: CHO-K1 H1R binding assay (3H-pyrilamine displacement); details: CHO-K1 membranes, 3H-pyrilamine 2 nM, 3 hours at 37° C.; read-out: CHOH1 KI
T2 construct: expressed in transfected cells; host or cells: CHO-K1
T2 sequence (P35367 whole entry): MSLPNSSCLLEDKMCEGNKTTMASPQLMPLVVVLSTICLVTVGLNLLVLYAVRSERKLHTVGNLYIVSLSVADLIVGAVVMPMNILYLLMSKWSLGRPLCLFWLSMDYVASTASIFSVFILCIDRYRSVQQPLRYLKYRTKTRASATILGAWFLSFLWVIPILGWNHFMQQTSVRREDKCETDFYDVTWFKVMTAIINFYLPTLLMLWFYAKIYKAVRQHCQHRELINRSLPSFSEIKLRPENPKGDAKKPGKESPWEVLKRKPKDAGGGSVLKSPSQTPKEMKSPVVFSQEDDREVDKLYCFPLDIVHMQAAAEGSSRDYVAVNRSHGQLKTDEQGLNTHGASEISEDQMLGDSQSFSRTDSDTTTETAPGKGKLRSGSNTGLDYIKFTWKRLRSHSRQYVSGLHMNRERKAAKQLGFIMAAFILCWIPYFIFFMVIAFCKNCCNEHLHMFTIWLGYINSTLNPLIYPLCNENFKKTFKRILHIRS
Protocol: CHO—K1 cells expressing the human cloned H1 receptor are grown to confluence in tissue culture dishes. Cells are harvested using D-PBS buffer (JRH Biosciences), kept at 4° C., centrifuging to pellet cells (4° C., 500 g, 10 min). The final cell pellet is homogenized and resuspended using Tris/sucrose buffer (20 mM Tris, 250 mM sucrose, pH 74 at 4° C. Aliquots of the membrane preparation are stored at −70° C.
On the day of assay, the membrane preparation is thawed and centrifuged (TLA100.3 rotor, 4° C., 15 min, 23,000 rpm). The pellet is resuspended in Tris/sucrose buffer initially and then diluted further as necessary using assay buffer A (50 mM Na/KPO4, 2 mM MgCl2, 0.5% (w/v) BSA, pH 7.5).
For the binding assay, the membrane preparation, test compound and ^3H-pyrilamine (2 nM final) in buffer A with 1% (v/v) DMSO final are incubated in a 96-well polypropylene plate for 3 hours at 37° C. Non-specific binding is determined in the presence of 10 μM pyrilamine. A 96-well harvester (Packard) is used to harvest the 96-well plate onto a GF/B filter plate pre-treated with 0.1% (v/v) PEI. The plate is counted in a Packard Topcounter after adding Microscint 20 (Packard) scintillation fluid. The Ki for each compound at the histamine H1 receptor is then calculated from these counts.

In the case of `NC(=O)N(O)CCOCCN1CCN([C@@H](c2ccccc2)c2ccc(Cl)cc2)CC1` [Compound 22, N-[2-(2-{4-[(1R)(4-chlorophenyl)phenylmethyl]piperazinyl}ethoxy)ethyl] amino-N-hydroxyamide], the IC50 [1] is reported as 1470 nM and the Ki (human cloned H1 receptor) is reported as 8 nM.
